Test [1] concerns Ls174T cells. Nature of the test: Colony formation assay of Ls174T cells. Particulars: Homo sapiens, 120 h, stained after 5 days, read-out: estimated IC50 colony formation. The test is classed as cell-based. The method, then: Partial shRNA-mediated depletion of HUWE1 led to a moderate, but highly significant reduction in IC50 value for growth inhibition by BI8622, arguing that growth inhibition is an on-target effect of the inhibitor (Supplementary Fig S6). […] Incubation with either compound retarded passage of Ls174T cells through all phases of the cell cycle, with the effect being strongest for G1. In contrast to colon carcinoma cells, HUWE1 is not required for proliferation of embryonic stem (ES) cells and deletion of HUWE1 instead delays the decrease of N-MYC levels that occurs upon removal of leukemia inhibitory factor (LIF) from the medium (Zhao et al, [2008]). […]
Figure 4 Effect of HUWE1 inhibition on growth and gene expression in epithelial and embryonic stem cells • Colony formation assays documenting growth of Ls174T cells in the presence of the indicated concentrations of HUWE1 inhibitors. […] A quantitation of N-MYC protein levels relative to Vinculin is shown below the blot (n = 3). • RQ–PCR assays documenting expression of MYC target gene expression in murine ES cells (F) and in crypt cultures of normal intestinal epithelial cells (G) upon inhibition of HUWE1. […]
HCT116, HEK293T, HeLa, HT29, ES, Phoenix, and U2OS cells were cultivated in DMEM (Sigma). […] Quantification of crystal violet staining was performed by extracting dye with 10% acetic acid and measuring absorbance at 590 nm. […]

Test [2] concerns the target T1, SMURF2 (Homo sapiens, UniProt Q9HAU4).
T1 construct: HECT-domains of multiple ligases auto-ubiquitinate in in vitro assays containing both UBA1 and UbcH5b
Nature of the test: in vitro HECT-domain auto-ubiquitination assay, SMURF2. In kind it is biochemical.

In test [3] the target is T2, WWP1 (Homo sapiens, UniProt Q9H0M0).
T2 construct: HECT-domains of multiple ligases auto-ubiquitinate in in vitro assays containing both UBA1 and UbcH5b
Nature of the test: in vitro HECT-domain auto-ubiquitination assay, WWP1. In kind it is biochemical.

Test [4] addresses T3, ITCH (Homo sapiens, UniProt Q96J02).
T3 construct: HECT-domains of multiple ligases auto-ubiquitinate in in vitro assays containing both UBA1 and UbcH5b
Nature of the test: in vitro HECT-domain auto-ubiquitination assay, ITCH. The test is classed as biochemical.

Test [5] concerns the target T4, HECW2 (Homo sapiens, UniProt Q9P2P5).
T4 construct: HECT-domains of multiple ligases auto-ubiquitinate in in vitro assays containing both UBA1 and UbcH5b
Nature of the test: in vitro HECT-domain auto-ubiquitination assay, HECW2. The test is classed as biochemical.

Some results are limits rather than exact numbers.

T2 sequence (Q9H0M0 588-922 limits assumed, species assumed): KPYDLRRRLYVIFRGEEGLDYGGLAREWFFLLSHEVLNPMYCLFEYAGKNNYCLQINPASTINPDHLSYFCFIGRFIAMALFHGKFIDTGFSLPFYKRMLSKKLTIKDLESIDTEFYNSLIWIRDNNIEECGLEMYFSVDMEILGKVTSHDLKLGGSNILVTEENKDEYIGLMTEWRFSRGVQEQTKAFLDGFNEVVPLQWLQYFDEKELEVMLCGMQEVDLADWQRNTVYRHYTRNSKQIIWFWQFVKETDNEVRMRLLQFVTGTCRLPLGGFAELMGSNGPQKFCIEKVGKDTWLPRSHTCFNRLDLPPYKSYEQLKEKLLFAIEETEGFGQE
T3 sequence (Q96J02 569-903 limits assumed, species assumed): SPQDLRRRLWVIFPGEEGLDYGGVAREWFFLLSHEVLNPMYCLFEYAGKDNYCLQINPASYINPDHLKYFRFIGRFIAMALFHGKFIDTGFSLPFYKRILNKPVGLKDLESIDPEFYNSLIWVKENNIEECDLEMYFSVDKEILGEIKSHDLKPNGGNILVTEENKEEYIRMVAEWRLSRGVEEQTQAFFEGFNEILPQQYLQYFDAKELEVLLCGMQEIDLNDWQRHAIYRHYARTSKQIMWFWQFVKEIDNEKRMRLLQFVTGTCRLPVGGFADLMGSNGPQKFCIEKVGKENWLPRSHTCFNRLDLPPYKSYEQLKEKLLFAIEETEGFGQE
T1 sequence (Q9HAU4 414-748 limits assumed, species assumed): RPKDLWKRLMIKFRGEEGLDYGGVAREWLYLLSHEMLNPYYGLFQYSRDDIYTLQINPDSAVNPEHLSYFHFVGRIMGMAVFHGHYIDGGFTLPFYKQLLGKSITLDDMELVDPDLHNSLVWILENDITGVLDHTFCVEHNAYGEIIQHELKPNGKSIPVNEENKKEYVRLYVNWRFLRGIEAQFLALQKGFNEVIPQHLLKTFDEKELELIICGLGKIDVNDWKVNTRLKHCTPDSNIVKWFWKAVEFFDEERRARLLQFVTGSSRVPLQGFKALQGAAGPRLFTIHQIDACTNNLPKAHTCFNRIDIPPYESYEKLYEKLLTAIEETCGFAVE
T4 sequence (Q9P2P5 1237-1572 limits assumed, species assumed): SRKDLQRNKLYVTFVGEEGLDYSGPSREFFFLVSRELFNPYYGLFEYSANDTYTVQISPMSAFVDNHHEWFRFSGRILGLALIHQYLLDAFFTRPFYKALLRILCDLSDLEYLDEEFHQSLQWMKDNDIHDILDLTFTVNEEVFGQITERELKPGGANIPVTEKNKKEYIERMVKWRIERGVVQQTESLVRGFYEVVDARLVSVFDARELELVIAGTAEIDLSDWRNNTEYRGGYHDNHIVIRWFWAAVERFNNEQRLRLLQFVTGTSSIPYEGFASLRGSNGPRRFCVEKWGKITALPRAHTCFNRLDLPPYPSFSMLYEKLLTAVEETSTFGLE

With `Cc1c(C(=O)Nc2ccc(CN)cc2)ncnc1N1CCC(C#N)(c2ccccc2)CC1` [BI8622], the IC50 in test [1] is 8.4 µM; in test [2] it was more than 50 µM; in test [3], more than 50 µM; in test [4], more than 50 µM; in test [5] it was more than 50 µM.
Turning to `NCc1cccc(CNc2ncnc3c(N4CCN(Cc5ccccc5)CC4)ncnc23)c1` [BI8626], the IC50 in test [1] is 0.7 µM; in test [2] it was more than 50 µM; in test [3], more than 50 µM; in test [4], more than 50 µM; in test [5] it was more than 50 µM.

By IC50 is commonly meant the point on the concentration scale where inhibition reaches its midpoint.

(Values after paper PMC4287973, “Tumor cell-specific inhibition of MYC function using small molecule inhibitors of the HUWE1 ubiquitin ligase” (EMBO Molecular Medicine, 2014).)
